PubChem BioAssay (NCI)
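How tested: cells in 96-well plates exposed to compound for 48 hours at five concentrations. At the GI50, growth is halved. Definition used: TGI = concentration required for complete inhibition of growth.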

Assays:
Assay in all cases: NCI anticancer screen, dose series, 48 h
[1] = system: A549 NSCLC
[2] = system: SR leukemia
[3] = system: MOLT-4 leukemia
[4] = system: BT-549 breast
[5] = system: HOP-62 NSCLC
[6] = system: HS 578T breast
[7] = system: NCI/ADR-RES ovarian
[8] = system: COLO 205 colon
[9] = system: CCRF-CEM leukemia
[10] = system: LOX IMVI melanoma
[11] = system: U251 CNS
[12] = system: M14 melanoma
[13] = system: HCT-116 colon
[14] = system: SK-MEL-5 melanoma
[15] = system: EKVX NSCLC
[16] = system: NCI-H226 lung
[17] = system: MCF7 breast
[18] = system: SNB-19 CNS
[19] = system: 786-0 renal
[20] = system: UO-31 renal
[21] = system: MALME-3M melanoma
[22] = system: SN12C renal
[23] = system: OVCAR-3 ovarian
[24] = system: NCI-H23 lung
[25] = system: HL-60(TB) leukemia
[26] = system: SF-268 CNS
[27] = system: HT29 colon
[28] = system: OVCAR-4 ovarian
[29] = system: SK-MEL-2 melanoma
[30] = system: HOP-92 NSCLC
[31] = system: HCC-2998 colon
[32] = system: UACC-257 melanoma
[33] = system: SK-OV-3 ovarian
[34] = system: OVCAR-8 ovarian
[35] = system: IGROV1 ovarian
[36] = system: SNB-75 CNS
[37] = system: K-562 leukemia
[38] = system: OVCAR-5 ovarian
[39] = system: TK-10 renal
[40] = system: NCI-H522 lung
[41] = system: SW-620 colon
[42] = system: SF-539 CNS
[43] = system: ACHN renal
[44] = system: HCT-15 colon
[45] = system: T-47D breast
[46] = system: MDA-MB-435
[47] = system: SK-MEL-28 melanoma
[48] = system: KM12 colon
[49] = system: DU-145 prostate
[50] = system: MDA-MB-231 breast
[51] = system: PC-3 prostate
[52] = system: CAKI-1 renal
[53] = system: SF-295 CNS
[54] = system: RPMI-8226 leukemia
[55] = system: NCI-H460 lung
[56] = system: A498 renal
[57] = system: RXF 393 renal
[58] = system: UACC-62 melanoma

SMILES: Cc1cc2c([nH]1)CSc1cc(S(=O)(=O)c3ccccc3)c(=O)[nH]c1-2
- GI50 [1]: 43.8 µM
- TGI [1]: > 100 µM
- GI50 [2]: 0.167 µM
- TGI [2]: > 100 µM
- GI50 [3]: 2.74 µM
- TGI [3]: > 100 µM
- GI50 [4]: 0.732 µM
- TGI [4]: > 74.4 µM
- GI50 [5]: 2.09 µM
- TGI [5]: > 100 µM
- GI50 [6]: 1.8 µM
- TGI [6]: 9.43 µM
- GI50 [7]: 0.445 µM
- TGI [7]: 2.17 µM
- GI50 [8]: 14.1 µM
- TGI [8]: 35.2 µM
- GI50 [9]: 0.452 µM
- TGI [9]: > 100 µM
- GI50 [10]: 0.61 µM
- TGI [10]: > 73.2 µM
- GI50 [11]: 0.388 µM
- TGI [11]: > 100 µM
- GI50 [12]: 0.289 µM
- TGI [12]: 2.16 µM
- GI50 [13]: 0.368 µM
- TGI [13]: 10.9 µM
- GI50 [14]: 0.5 µM
- TGI [14]: 16.1 µM
- GI50 [15]: 21 µM
- TGI [15]: > 100 µM
- GI50 [16]: 14.6 µM
- TGI [16]: > 88.7 µM
- GI50 [17]: 0.263 µM
- TGI [17]: 16.1 µM
- GI50 [18]: 2.16 µM
- TGI [18]: > 100 µM
- GI50 [19]: 14.9 µM
- TGI [19]: > 100 µM
- GI50 [20]: 16.4 µM
- TGI [20]: > 93.6 µM
- GI50 [21]: 0.568 µM
- TGI [21]: 75.9 µM
- GI50 [22]: 0.666 µM
- TGI [22]: > 100 µM
- GI50 [23]: 0.246 µM
- TGI [23]: 0.615 µM
- GI50 [24]: 1.04 µM
- TGI [24]: 60.6 µM
- GI50 [25]: 0.249 µM
- GI50 [26]: 2.39 µM
- TGI [26]: > 80.9 µM
- GI50 [27]: 0.316 µM
- GI50 [28]: 0.553 µM
- TGI [28]: > 86.2 µM
- GI50 [29]: 1.46 µM
- TGI [29]: > 83.2 µM
- GI50 [30]: 0.139 µM
- TGI [30]: 1.32 µM
- GI50 [31]: 3.42 µM
- TGI [31]: > 42.6 µM
- GI50 [32]: 17.3 µM
- TGI [32]: > 100 µM
- GI50 [33]: 21.9 µM
- TGI [33]: > 100 µM
- GI50 [34]: 1.54 µM
- TGI [34]: > 100 µM
- GI50 [35]: 0.82 µM
- TGI [35]: > 95.5 µM
- GI50 [36]: 1.56 µM
- TGI [36]: > 24 µM
- GI50 [37]: 2.56 µM
- TGI [37]: > 100 µM
- GI50 [38]: 17.6 µM
- TGI [38]: > 100 µM
- GI50 [39]: 21.7 µM
- TGI [39]: > 100 µM
- GI50 [40]: 3.77 µM
- TGI [40]: 36.7 µM
- GI50 [41]: 0.306 µM
- TGI [41]: > 100 µM
- GI50 [42]: 0.327 µM
- TGI [42]: 1.82 µM
- GI50 [43]: 13.3 µM
- TGI [43]: > 100 µM
- GI50 [44]: 0.392 µM
- TGI [44]: > 100 µM
- GI50 [45]: 0.35 µM
- TGI [45]: 55.1 µM
- GI50 [46]: 0.197 µM
- TGI [46]: 0.46 µM
- GI50 [47]: 4.67 µM
- TGI [47]: 42.5 µM
- GI50 [48]: 0.461 µM
- TGI [48]: 5.24 µM
- GI50 [49]: 0.722 µM
- TGI [49]: 13.2 µM
- GI50 [50]: 1.63 µM
- TGI [50]: > 100 µM
- GI50 [51]: 0.351 µM
- TGI [51]: > 100 µM
- GI50 [52]: 4.4 µM
- TGI [52]: > 58.4 µM
- GI50 [53]: 2.4 µM
- TGI [53]: 8.09 µM
- GI50 [54]: 0.806 µM
- TGI [54]: > 100 µM
- GI50 [55]: 20.6 µM
- TGI [55]: 68.5 µM
- GI50 [56]: 22.1 µM
- TGI [56]: 69.7 µM
- GI50 [57]: 4.64 µM
- TGI [57]: > 61.5 µM
- GI50 [58]: 0.465 µM
- TGI [58]: > 39.6 µM
